Where a SMILES comes first, the peptide text is derived from it. [ ]: non-standard residue; d: D form. Aib = CC(C)(N)C(=O)O

From patent US20240239861A1, “GLUCAGON-RECEPTOR SELECTIVE POLYPEPTIDES AND METHODS OF USE THEREOF” (i2O Therapeutics, Inc., priority 2016, published 2024) come the findings set out here.

In the first test the target is human GCGR (Homo sapiens, UniProt P47871). The experiment in a line: Peptide-receptor mediated cAMP accumulation (LANCE Ultra cAMP) in CHO-K1 cells transfected with human GCGR. Type of test: cell-based. Particulars: FIG. 1A.
Take “GLP-1 (7-37): form of glucagon-like peptide-1 used as comparator in the receptor activation profiles of FIG. 1 [reference compound]”: the “activation profile at the human glucagon receptor (GCGR)” value is given as “much lower potency”.

The target in another test is human GLP-1R (Homo sapiens, UniProt P43220). The test is described as follows: Peptide-receptor mediated cAMP accumulation (LANCE Ultra cAMP) in CHO-K1 cells transfected with human GLP-1R. It is filed as cell-based. Particulars: hGLP1 pEC50 (cAMP mean (n = 3): 11 point curve starting at 1 nM, Table 3). Background: cAMP levels reflect the balance of adenylyl cyclase and phosphodiesterase activity.
Chain of human GLP-1R (P43220 24-463): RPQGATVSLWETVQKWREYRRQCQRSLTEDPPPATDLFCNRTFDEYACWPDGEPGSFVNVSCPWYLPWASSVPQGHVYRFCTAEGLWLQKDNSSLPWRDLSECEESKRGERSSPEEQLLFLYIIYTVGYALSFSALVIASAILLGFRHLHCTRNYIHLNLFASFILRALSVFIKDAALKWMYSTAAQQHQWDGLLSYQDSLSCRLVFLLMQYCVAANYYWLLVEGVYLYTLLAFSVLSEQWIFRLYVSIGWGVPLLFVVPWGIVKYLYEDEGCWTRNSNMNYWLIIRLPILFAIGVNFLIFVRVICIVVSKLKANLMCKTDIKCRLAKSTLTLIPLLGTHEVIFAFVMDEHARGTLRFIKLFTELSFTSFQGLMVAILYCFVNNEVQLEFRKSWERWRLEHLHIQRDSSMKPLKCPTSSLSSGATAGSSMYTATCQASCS
Take `CC(C)C[C@H](NC(=O)[C@H](Cc1ccc(O)cc1)NC(=O)[C@H](CCCCN)NC(=O)[C@H](CO)NC(=O)[C@H](Cc1ccc(O)cc1)NC(=O)[C@H](CC(=O)O)NC(=O)[C@H](CO)NC(=O)[C@@H](NC(=O)[C@H](Cc1ccccc1)NC(=O)[C@@H](NC(=O)CNC(=O)[C@H](Cc1c[nH]cn1)NC(=O)[C@H](CO)NC(=O)[C@@H](N)Cc1ccc(O)cc1)[C@@H](C)O)[C@@H](C)O)C(=O)N[C@@H](CC(=O)O)C(=O)N[C@@H](C)C(=O)N[C@@H](C)C(=O)N[C@@H](CCCNC(=N)N)C(=O)N[C@@H](C)C(=O)N[C@@H](CCC(N)=O)C(=O)N[C@@H](CCC(=O)O)C(=O)N[C@@H](Cc1ccccc1)C(=O)N[C@H](C(=O)N[C@@H](CCCCN)C(=O)N[C@@H](Cc1c[nH]c2ccccc12)C(=O)N[C@@H](CC(C)C)C(=O)N[C@@H](CCC(=O)O)C(=O)N[C@@H](CC(=O)O)C(=O)N[C@@H](CCC(=O)O)C(=O)N1CCC[C@H]1C(=O)N[C@@H](CCCCN)C(=O)N[C@@H](CO)C(=O)N[C@@H](CCCCN)C(=O)N[C@@H](CO)C(=O)N1CCC[C@H]1C(=O)N1CCC[C@H]1C(=O)N1CCC[C@H]1C(=O)N[C@@H](CO)C(N)=O)C(C)C` [Compound A80] (H-YSHGTFTSDYSKYLDAARAQEFVKWLEDEPKSKSPPPS-NH2; N-terminus assumed): the EC50 (usually the concentration at which the effect is half-maximal) is greater than 1 nM.

As for `CC(C)C[C@H](NC(=O)[C@H](Cc1ccc(O)cc1)NC(=O)[C@H](CCCCN)NC(=O)[C@H](CO)NC(=O)[C@H](Cc1ccc(O)cc1)NC(=O)[C@H](CC(=O)O)NC(=O)[C@H](CO)NC(=O)[C@@H](NC(=O)[C@H](Cc1ccccc1)NC(=O)[C@@H](NC(=O)CNC(=O)[C@H](Cc1c[nH]cn1)NC(=O)[C@H](CO)NC(=O)[C@@H](N)Cc1ccc(O)cc1)[C@@H](C)O)[C@@H](C)O)C(=O)N[C@@H](CC(=O)O)C(=O)NC(C)(C)C(=O)N[C@@H](CCCCN)C(=O)N[C@@H](CCCNC(=N)N)C(=O)N[C@@H](C)C(=O)N[C@@H](CCC(N)=O)C(=O)N[C@@H](CCC(=O)O)C(=O)N[C@@H](Cc1ccccc1)C(=O)N[C@H](C(=O)NC(C)(C)C(=O)N[C@@H](Cc1c[nH]c2ccccc12)C(=O)N[C@@H](CC(C)C)C(=O)N[C@@H](CCC(=O)O)C(=O)N[C@@H](CC(=O)O)C(=O)N[C@@H](CCC(=O)O)C(=O)N1CCC[C@H]1C(=O)N[C@@H](CO)C(=O)N[C@@H](CO)C(=O)NCC(=O)N[C@@H](CCCCN)C(=O)N1CCC[C@H]1C(=O)N1CCC[C@H]1C(=O)N1CCC[C@H]1C(=O)N[C@@H](CO)C(N)=O)C(C)C` [Compound A85] (H-YSHGTFTSDYSKYLD[Aib]KRAQEFV[Aib]WLEDEPSSGKPPPS-NH2; N-terminus assumed), the EC50 is greater than 1 nM.

For `CC(C)C[C@H](NC(=O)[C@H](Cc1ccc(O)cc1)NC(=O)[C@H](CCCCN)NC(=O)[C@H](CO)NC(=O)[C@H](Cc1ccc(O)cc1)NC(=O)[C@H](CC(=O)O)NC(=O)[C@H](CO)NC(=O)[C@@H](NC(=O)[C@H](Cc1ccccc1)NC(=O)[C@@H](NC(=O)CNC(=O)[C@H](Cc1c[nH]cn1)NC(=O)[C@H](CO)NC(=O)[C@@H](N)Cc1ccc(O)cc1)[C@@H](C)O)[C@@H](C)O)C(=O)N[C@@H](CC(=O)O)C(=O)NC(C)(C)C(=O)N[C@@H](CCCCN)C(=O)N[C@@H](CCCNC(=N)N)C(=O)N[C@@H](C)C(=O)N[C@@H](CCC(N)=O)C(=O)N[C@@H](CCC(=O)O)C(=O)N[C@@H](Cc1ccccc1)C(=O)N[C@H](C(=O)NC(C)(C)C(=O)N[C@@H](Cc1c[nH]c2ccccc12)C(=O)N[C@@H](CC(C)C)C(=O)N[C@@H](CCC(=O)O)C(=O)N[C@@H](CC(=O)O)C(=O)N[C@@H](CCC(=O)O)C(=O)N[C@@H](CCCCN)C(=O)N[C@@H](CO)C(=O)N[C@@H](CO)C(=O)NCC(=O)N[C@@H](CCCCN)C(=O)N1CCC[C@H]1C(=O)N1CCC[C@H]1C(=O)N1CCC[C@H]1C(=O)N[C@@H](CO)C(=O)O)C(C)C` [Compound A87] (H-YSHGTFTSDYSKYLD[Aib]KRAQEFV[Aib]WLEDEKSSGKPPPS-OH; N-terminus assumed), the EC50 was greater than 1 nM.

`CC(C)C[C@H](NC(=O)[C@H](Cc1ccc(O)cc1)NC(=O)[C@H](CCCCN)NC(=O)[C@H](CO)NC(=O)[C@H](Cc1ccc(O)cc1)NC(=O)[C@H](CC(=O)O)NC(=O)[C@H](CO)NC(=O)[C@@H](NC(=O)[C@H](Cc1ccccc1)NC(=O)[C@@H](NC(=O)CNC(=O)[C@H](Cc1c[nH]cn1)NC(=O)[C@H](CO)NC(=O)[C@@H](N)Cc1ccc(O)cc1)[C@@H](C)O)[C@@H](C)O)C(=O)N[C@@H](CC(=O)O)C(=O)NC(C)(C)C(=O)N[C@@H](CCCCN)C(=O)N[C@@H](CCCNC(=N)N)C(=O)N[C@@H](C)C(=O)N[C@@H](CCC(N)=O)C(=O)N[C@@H](CCC(=O)O)C(=O)N[C@@H](Cc1ccccc1)C(=O)N[C@H](C(=O)NC(C)(C)C(=O)N[C@@H](Cc1c[nH]c2ccccc12)C(=O)N[C@@H](CC(C)C)C(=O)N[C@@H](CCC(=O)O)C(=O)N[C@@H](CC(=O)O)C(=O)N[C@@H](CCC(=O)O)C(=O)N1CCC[C@H]1C(=O)N[C@@H](CO)C(=O)N[C@@H](CO)C(=O)NCC(=O)N[C@@H](CCCCN)C(=O)N[C@@H](CCCCN)C(=O)N1CCC[C@H]1C(=O)N1CCC[C@H]1C(=O)N[C@@H](CO)C(=O)O)C(C)C` [Compound A88] (H-YSHGTFTSDYSKYLD[Aib]KRAQEFV[Aib]WLEDEPSSGKKPPS-OH) had a concentration giving a half-maximal response (EC50) greater than 1 nM.

`CC(C)C[C@H](NC(=O)[C@H](Cc1ccc(O)cc1)NC(=O)[C@H](CCCCN)NC(=O)[C@H](CO)NC(=O)[C@H](Cc1ccc(O)cc1)NC(=O)[C@H](CC(=O)O)NC(=O)[C@H](CO)NC(=O)[C@@H](NC(=O)[C@H](Cc1ccccc1)NC(=O)[C@@H](NC(=O)CNC(=O)[C@H](Cc1c[nH]cn1)NC(=O)[C@H](CO)NC(=O)[C@@H](N)Cc1ccc(O)cc1)[C@@H](C)O)[C@@H](C)O)C(=O)N[C@@H](CC(=O)O)C(=O)NC(C)(C)C(=O)N[C@@H](CCCCN)C(=O)N[C@@H](CCCNC(=N)N)C(=O)N[C@@H](C)C(=O)N[C@@H](CCC(N)=O)C(=O)N[C@@H](CCC(=O)O)C(=O)N[C@@H](Cc1ccccc1)C(=O)N[C@H](C(=O)NC(C)(C)C(=O)N[C@@H](Cc1c[nH]cn1)C(=O)N[C@@H](CC(C)C)C(=O)N[C@@H](CCC(=O)O)C(=O)N[C@@H](CC(=O)O)C(=O)N[C@@H](CCC(=O)O)C(=O)N1CCC[C@H]1C(=O)N[C@@H](CO)C(=O)N[C@@H](CO)C(=O)NCC(=O)N[C@@H](CCCCN)C(=O)N1CCC[C@H]1C(=O)N1CCC[C@H]1C(=O)N1CCC[C@H]1C(=O)N[C@@H](CO)C(=O)O)C(C)C` [Compound A89] (H-YSHGTFTSDYSKYLD[Aib]KRAQEFV[Aib]HLEDEPSSGKPPPS-OH; N-terminus assumed): the half-maximal effective concentration (EC50) is greater than 1 nM.

In turn, `CC(C)C[C@H](NC(=O)[C@H](Cc1ccc(O)cc1)NC(=O)[C@H](CCCCN)NC(=O)[C@H](CO)NC(=O)[C@H](Cc1ccc(O)cc1)NC(=O)[C@H](CC(=O)O)NC(=O)[C@H](CO)NC(=O)[C@@H](NC(=O)[C@H](Cc1ccccc1)NC(=O)[C@@H](NC(=O)CNC(=O)[C@H](Cc1c[nH]cn1)NC(=O)[C@H](CO)NC(=O)[C@@H](N)Cc1ccc(O)cc1)[C@@H](C)O)[C@@H](C)O)C(=O)N[C@@H](CC(=O)O)C(=O)NC(C)(C)C(=O)N[C@@H](CCCCN)C(=O)N[C@@H](C)C(=O)N[C@@H](C)C(=O)N[C@@H](CCC(N)=O)C(=O)N[C@@H](CCC(=O)O)C(=O)N[C@@H](Cc1ccccc1)C(=O)N[C@H](C(=O)NC(C)(C)C(=O)N[C@@H](Cc1c[nH]c2ccccc12)C(=O)N[C@@H](CC(C)C)C(=O)N[C@@H](CCC(=O)O)C(=O)N[C@@H](CC(=O)O)C(=O)N[C@@H](CCC(=O)O)C(=O)N1CCC[C@H]1C(=O)N[C@@H](CO)C(=O)N[C@@H](CO)C(=O)NCC(=O)N[C@@H](CCCCN)C(=O)N1CCC[C@H]1C(=O)N1CCC[C@H]1C(=O)N1CCC[C@H]1C(=O)N[C@@H](CO)C(=O)O)C(C)C` [Compound A90] (H-YSHGTFTSDYSKYLD[Aib]KAAQEFV[Aib]WLEDEPSSGKPPPS-OH; N-terminus assumed) displayed an EC50 greater than 1 nM.

Regarding `CC(C)C[C@H](NC(=O)[C@H](Cc1ccc(O)cc1)NC(=O)[C@H](CCCCN)NC(=O)[C@H](CO)NC(=O)[C@H](Cc1ccc(O)cc1)NC(=O)[C@H](CC(=O)O)NC(=O)[C@H](CO)NC(=O)[C@@H](NC(=O)[C@H](Cc1ccccc1)NC(=O)[C@@H](NC(=O)CNC(=O)[C@H](CCC(N)=O)NC(=O)[C@H](CO)NC(=O)[C@@H](N)Cc1ccc(O)cc1)[C@@H](C)O)[C@@H](C)O)C(=O)N[C@@H](CC(=O)O)C(=O)NC(C)(C)C(=O)N[C@@H](CCCCN)C(=O)N[C@@H](C)C(=O)N[C@@H](C)C(=O)N[C@@H](CCC(N)=O)C(=O)N[C@@H](CCC(=O)O)C(=O)N[C@@H](Cc1ccccc1)C(=O)N[C@H](C(=O)NC(C)(C)C(=O)N[C@@H](Cc1c[nH]c2ccccc12)C(=O)N[C@@H](CC(C)C)C(=O)N[C@@H](CCC(=O)O)C(=O)N[C@@H](CC(=O)O)C(=O)N[C@@H](CCC(=O)O)C(=O)N1CCC[C@H]1C(=O)N[C@@H](CO)C(=O)N[C@@H](CO)C(=O)NCC(=O)N[C@@H](CCCCN)C(=O)N1CCC[C@H]1C(=O)N1CCC[C@H]1C(=O)N1CCC[C@H]1C(=O)N[C@@H](CO)C(=O)O)C(C)C` [Compound A96] (H-YSQGTFTSDYSKYLD[Aib]KAAQEFV[Aib]WLEDEPSSGKPPPS-OH; N-terminus assumed), the EC50 is greater than 1 nM.
